Reference: ChEMBL document CHEMBL1129176, “Enantio-dependence of inducer-specific bidirectional regulation of tumor necrosis factor (TNF)-alpha production: Potent TNF- production inhibitors” (1996)

How the values were obtained:
Type in all cases: functional, Homo sapiens
HL-60 [1] = assay: Compound was evaluated for the amount of TNF-alpha produced by HL-60 cells in the presence of 12-O-tetradecanoylphorbol-13-acetate (TPA) at concentration 0.3 uM
HL-60 [2] = assay: Compound was evaluated for the amount of TNF-alpha produced by HL-60 cells in the presence of Okadaic acid (OA) at concentration 0.3 uM
HL-60 [3] = assay: Compound was evaluated for the amount of TNF-alpha produced by HL-60 cells in the presence of 12-O-tetradecanoylphorbol-13-acetate (TPA) at concentration 30 uM
HL-60 [4] = assay: Compound was evaluated for the amount of TNF-alpha produced by HL-60 cells in the presence of Okadaic acid (OA) at concentration 30 uM

Row | SMILES | Production (HL-60 [1]) [%] | Production (HL-60 [2]) [%] | Production (HL-60 [3]) [%] | Production (HL-60 [4]) [%]
1 | C[C@@H](c1ccccc1)N1C(=O)c2c(F)c(F)c(F)c(F)c2C1=O | 143 | 70 |  | 
2 | C[C@]1(N2C(=O)c3ccccc3C2=O)CCC(=O)NC1=O |  |  | 358 | 75
3 | C[C@H](c1ccccc1)N1C(=O)c2c(F)c(F)c(F)c(F)c2C1=O | 97 | 2 |  | 
4 | C[C@H](C1CCCCC1)N1C(=O)c2c(F)c(F)c(F)c(F)c2C1=O | 98 | 10 |  | 
5 | C[C@@H](c1cccc2ccccc12)N1C(=O)c2c(F)c(F)c(F)c(F)c2C1=O | 101 | 101 |  | 
6 | C[C@H](c1cccc2ccccc12)N1C(=O)c2c(F)c(F)c(F)c(F)c2C1=O | 100 | 2 |  | 
7 | C[C@@H](C1CCCCC1)N1C(=O)c2c(F)c(F)c(F)c(F)c2C1=O | 124 | 65 |  | 
8 | C[C@@]1(N2C(=O)c3ccccc3C2=O)CCC(=O)NC1=O |  |  | 103 | 39
9 | O=C1CCC(N2C(=O)c3ccccc3C2=O)C(=O)N1 (stereo not drawn) [THALIDOMIDE] |  |  | 135 | 58
